Test results from article PMC8092326 (mBio, 2021).
Where “and” joins values, the source holds several entries; their conditions need not be identical. Identical values can stand only once. Entries after “also recorded” stand apart in the source; their conditions may differ. Like-named read-outs stand apart in the source and are kept apart here. *1 amine or outer side, *2 acyl side, *3 side chain or, on linkers, in order; H or OH if unused. Where a SMILES comes first, the peptide text is derived from it. Bridges are numbered along the chain shown (N, C = ends). Roman numbers before positions name the chains, in order. [ ]: non-standard residue; d: D form. Actinocin(9to1) = Cc1c2oc3c(C)ccc(C(=O)[*:1])c3nc-2c(C(=O)[*:2])c(N)c1=O; NMeV = CN[C@H](C(=O)O)C(C)C; Sar = CNCC(=O)O

Key:
[1] = tested on: SARS-CoV-2 infection of Vero-E6 cells; conditions: for Screening data: 48 h
human ACE2 = target: T1, human ACE2 (Homo sapiens, UniProt Q9BYF1); assay: biochemical; assay type: binding; conditions: immobilized recombinant human ACE2; ± one SD; read-out: KD (nM) determined by SPR
T1 construct: purchased Assay Matrix; R&D Systems

[2] = target: T2, RBD-mimic1 peptide-ACE2 interaction (Homo sapiens, UniProt Q9BYF1); assay: SPR competition (ABA injection) between compound and RBD-mimic1 peptide for immobilized ACE2; assay type: binding; conditions: for inhibition at 1 µM: read-out: 1:1 competition between compound vs RBD-mimic1 peptide at 1 μM
T2 construct: purchased Assay Matrix; R&D Systems (ACE2); Mimotopes, Australia (peptide)

[3] = target: human ACE2-VLP spike protein interaction (UniProt P0DTC2+Q9BYF1); assay type: binding, SARS-CoV-2
human albumin = conditions: cited from earlier work
[4] = tested on: SARS-CoV-2 infection of Vero-E6 cells; assay: Dose-response inhibition of SARS-CoV-2 infection of Vero-E6 cells (24 h, in situ ELISA); assay type: cell-based; conditions: for IC50: Severe acute respiratory syndrome coronavirus 2, Vero C1008, 24 h infection, Vero-E6, MOI 0.12, read-out: IC50 (μM) Mean ± SD; for SI (selectivity index, CC50/IC50): Vero-E6 cells
in vitro = conditions: African green monkey
SARS-CoV-2 spike protein = target: T3, SARS-CoV-2 spike protein (Severe acute respiratory syndrome coronavirus 2, UniProt P0DTC2); assay: biochemical; assay type: binding
T3 construct: made in house; host or cells: HEK 293 cells

[5] = cited from earlier work
[6] = indicative of published Cmax values, ref not given, read-out: Cmax

T1 sequence (Q9BYF1 18-805): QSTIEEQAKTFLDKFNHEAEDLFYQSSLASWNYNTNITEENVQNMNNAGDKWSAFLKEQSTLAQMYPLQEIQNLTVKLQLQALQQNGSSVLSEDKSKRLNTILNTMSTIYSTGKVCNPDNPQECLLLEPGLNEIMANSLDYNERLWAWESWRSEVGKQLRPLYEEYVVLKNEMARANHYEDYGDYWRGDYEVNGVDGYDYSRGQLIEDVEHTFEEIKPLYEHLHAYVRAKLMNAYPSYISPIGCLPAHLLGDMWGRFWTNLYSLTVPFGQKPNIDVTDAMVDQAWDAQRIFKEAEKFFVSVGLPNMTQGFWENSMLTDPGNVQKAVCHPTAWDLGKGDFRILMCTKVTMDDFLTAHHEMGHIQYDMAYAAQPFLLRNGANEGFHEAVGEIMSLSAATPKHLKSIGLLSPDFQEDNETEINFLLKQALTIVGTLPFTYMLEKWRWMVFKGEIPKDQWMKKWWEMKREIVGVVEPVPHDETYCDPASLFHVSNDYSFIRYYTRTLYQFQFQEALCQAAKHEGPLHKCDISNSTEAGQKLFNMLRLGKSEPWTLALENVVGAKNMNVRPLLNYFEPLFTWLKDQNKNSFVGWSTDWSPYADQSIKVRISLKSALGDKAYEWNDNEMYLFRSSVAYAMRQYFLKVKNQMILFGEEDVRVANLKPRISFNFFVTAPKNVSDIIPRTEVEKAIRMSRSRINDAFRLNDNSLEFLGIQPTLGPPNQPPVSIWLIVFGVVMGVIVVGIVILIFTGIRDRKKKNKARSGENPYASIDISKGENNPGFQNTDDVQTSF
T2 sequence (Q9BYF1 18-740 limits assumed): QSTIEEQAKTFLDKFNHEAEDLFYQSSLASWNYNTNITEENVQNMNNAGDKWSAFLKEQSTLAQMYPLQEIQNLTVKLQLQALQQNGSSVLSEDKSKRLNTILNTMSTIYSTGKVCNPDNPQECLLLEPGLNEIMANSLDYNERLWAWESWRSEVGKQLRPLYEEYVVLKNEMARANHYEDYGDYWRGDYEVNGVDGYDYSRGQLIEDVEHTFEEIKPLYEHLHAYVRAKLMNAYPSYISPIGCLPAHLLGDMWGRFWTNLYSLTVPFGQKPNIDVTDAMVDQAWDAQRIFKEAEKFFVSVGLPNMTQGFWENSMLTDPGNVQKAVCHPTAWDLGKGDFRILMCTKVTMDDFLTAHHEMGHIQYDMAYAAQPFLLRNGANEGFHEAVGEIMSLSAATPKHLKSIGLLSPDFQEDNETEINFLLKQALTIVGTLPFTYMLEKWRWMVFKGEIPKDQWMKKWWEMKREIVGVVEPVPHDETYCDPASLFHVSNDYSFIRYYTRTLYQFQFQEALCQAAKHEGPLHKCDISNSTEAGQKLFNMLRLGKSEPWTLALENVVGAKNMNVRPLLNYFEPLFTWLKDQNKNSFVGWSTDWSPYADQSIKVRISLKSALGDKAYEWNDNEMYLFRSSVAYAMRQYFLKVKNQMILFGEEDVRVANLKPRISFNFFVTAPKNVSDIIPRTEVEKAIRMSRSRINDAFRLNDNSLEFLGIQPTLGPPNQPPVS
Sequence of human ACE2-VLP spike protein interaction (Q9BYF1 18-740, one chain of several): as the sequence (Q9BYF1 18-740 limits assumed) above

Molecule | Kd (human ACE2) | inhibition at 1 µM [2] | 1:1 Competition between compound vs CoV2 VLP [3] | IC50 [4] | Screening result at the highest concentration tested [1] | Blocking (%) [3] | CC50 (in vitro) | Cmax [5, 6] | further results
CCc1c2c(nc3ccc(OC(=O)N4CCC(N5CCCCC5)CC4)cc13)-c1cc3c(c(=O)n1C2)COC(=O)[C@]3(O)CC [Irinotecan] | 825 ± 112 nM | 100% | 100% ± 9.17 |  |  |  |  |  | Toxicity to Vero-E6 cells (in words, discussion) [1]: toxic; Inhibition of the RBD-mimic1 peptide-ACE2 interaction (in words) ([2]; 1:1 ratio at 1 μM): complete inhibition; also recorded: complete blocking
Cc1cc(-c2ccc(/N=N/c3ccc4c(S(=O)(=O)O)cc(S(=O)(=O)O)c(N)c4c3O)c(C)c2)ccc1/N=N/c1ccc2c(S(=O)(=O)O)cc(S(=O)(=O)O)c(N)c2c1O [Evans blue] | 1.6 nM and 1.63 nM | 99.8% | 98.9% ± 6.43 | 28.1 ± 1.2 µM | active | 78.2 ± 6.3% | > 1000 µM |  | Affinity for human albumin (human albumin): low μM range; Cytotoxicity in screening at the highest concentration tested [1]: no apparent cytotoxicity; Cytotoxicity toward Vero-E6 cells (Vero-E6 cells; at 1,000 μM): no cytotoxicity; Inhibition of the RBD-mimic1 peptide-ACE2 interaction (in words) ([2]; 1:1 ratio at 1 μM): complete inhibition; Initial SPR screening for binding to the VLP spike protein (SARS-CoV-2 spike protein): binding
C[C@H]1O[C@@H](O[C@H]2[C@@H](O)C[C@H](O[C@H]3[C@@H](O)C[C@H](O[C@H]4CC[C@@]5(C)[C@H](CC[C@@H]6[C@@H]5CC[C@]5(C)[C@@H](C7=CC(=O)OC7)CC[C@]65O)C4)O[C@@H]3C)O[C@@H]2C)C[C@H](O)[C@@H]1O [Digitoxin] | 1480 ± 87.6 nM | 25.1% | 23.6% ± 4.25 |  |  |  |  |  | 
Cc1c2oc3c(C)ccc(C(=O)N[C@@H]4C(=O)N[C@H](C(C)C)C(=O)N5CCC[C@H]5C(=O)N(C)CC(=O)N(C)[C@@H](C(C)C)C(=O)O[C@@H]4C)c3nc-2c(C(=O)N[C@@H]2C(=O)N[C@H](C(C)C)C(=O)N3CCC[C@H]3C(=O)N(C)CC(=O)N(C)[C@@H](C(C)C)C(=O)O[C@@H]2C)c(N)c1=O [Dactinomycin] (I: T[dV]P[Sar][NMeV] / II: T[dV]P[Sar][NMeV]; ester I:1-I:C, II:1-II:C; linker I:N-II:N via Actinocin(9to1)) |  |  |  |  |  | 69.7 ± 1.8% |  |  | Initial SPR screening for binding to the VLP spike protein (SARS-CoV-2 spike protein): binding
CO[C@H]1C[C@@H]2CC[C@@H](C)[C@@](O)(O2)C(=O)C(=O)N2CCCC[C@H]2C(=O)O[C@H]([C@H](C)C[C@@H]2CC[C@H](n3cnnn3)[C@H](OC)C2)CC(=O)[C@H](C)/C=C(\C)[C@@H](O)[C@@H](OC)C(=O)[C@H](C)C[C@H](C)/C=C/C=C/C=C/1C [Zotarolimus] | 2760 ± 178 nM | 69.4% | 71.6% ± 6.47 |  |  |  |  |  | 
COc1cc(-c2ccc(/N=N/c3ccc4c(S(=O)(=O)O)cc(S(=O)(=O)O)c(N)c4c3O)c(OC)c2)ccc1/N=N/c1ccc2c(S(=O)(=O)O)cc(S(=O)(=O)O)c(N)c2c1O [Chicago sky blue] | 349 ± 29.8 nM | 2.47% | 7.29% ± 1.64 |  |  |  |  |  | 
COc1ccc2c(O[C@@H]3C[C@H]4C(=O)N[C@]5(C(=O)NS(=O)(=O)C6CC6)C[C@H]5/C=C\CCCCN(C)C(=O)[C@@H]4C3)cc(-c3nc(C(C)C)cs3)nc2c1C [Simeprevir] |  |  |  |  | toxic | 88.6 ± 7.2% | 16.4 ± 0.8 µM | 2.59 µM | Toxicity to Vero-E6 cells (in words, discussion) [1]: toxic; Screening data ([1]; 10 μM): 100 μM: toxic, 10 μM: inactive; Screening data ([1]; 100 μM): 100 μM: toxic, 10 μM: inactive
Cc1cc(O)c(C(=O)N[C@@H](C(=O)N[C@@H]2C(=O)N3C(C(=O)O)=C(CSc4nnnn4C)CS[C@H]23)c2ccc(O)cc2)cn1 [Cefpiramide] |  |  |  | > 1500 µM | active | 81.9% and 81.9 ± 8.4% | > 1000 µM | 88 µM | Activity against SARS-CoV-2 infection in dose-response experiments ([4]; at […]): inactive; Cytotoxicity in screening at the highest concentration tested [1]: no apparent cytotoxicity; Screening data ([1]; 800 μM): 800 μM: ∼50% active; Cmax ([5]; intravenous, maximum dose 2,000 mg, single dose, read-out: Cmax): 205 µM; Initial SPR screening for binding to the VLP spike protein (SARS-CoV-2 spike protein): binding; Kd (SARS-CoV-2 spike protein): 0.33 µM
CS(=O)(=O)c1cccc(C[C@H](NC(=O)c2c(Cl)cc3c(c2Cl)CCN(C(=O)c2ccc4ccoc4c2)C3)C(=O)O)c1 [Sodium lifitegrast] |  |  |  | 1300 µM | active | 99.8% and 99.8 ± 6.4% | > 5000 µM |  | SI (selectivity index, CC50/IC50) [4]: >3.9; Cytotoxicity in screening at the highest concentration tested [1]: no apparent cytotoxicity; Cytotoxicity toward Vero-E6 cells (Vero-E6 cells): noncytotoxic; Cmax ([5]; in blood, indicative of published Cmax values, ref not given, read-out: Cmax in blood): 0.0027 ± 0.0021 µM; Cmax ([5]; in tears, indicative of published Cmax values, ref not given, read-out: Cmax in tears (converted)): 143 µM; Kd (SARS-CoV-2 spike protein): 0.00192 µM
CC#CC(=O)N1CCC[C@H]1c1nc(-c2ccc(C(=O)Nc3ccccn3)cc2)c2c(N)nccn12 [Acalabrutinib] | 25.7 ± 0.91 nM | 77.4% | 81.2% ± 12.9 | 184 µM | toxic |  | 406 ± 21.2 µM | 1.77 µM | SI (selectivity index, CC50/IC50) [4]: 2.2; Screening data ([1]; 100 μM): 100 μM: inactive
N[C@@H](Cc1ccc(O)c(O)c1)C(=O)O [Levodopa] | 13.6 ± 0.97 nM | 36.4% | 42.1% ± 5.17 |  |  |  |  |  | 
Epigallocatechin-3-gallate |  |  | 33.8% ± 4.67 |  |  |  |  |  | 1:1 competition between compound vs RBD-mimic1 peptide at 1 μM ([2]; 1:1 ratio at 1 μM, immobilized ACE2): 28.9% ± 1.43
COC(=O)N[C@H](C(=O)N1CC2(CC2)C[C@H]1c1ncc(-c2ccc3c(c2)C(F)(F)c2cc(-c4ccc5nc([C@@H]6[C@H]7CC[C@H](C7)N6C(=O)[C@@H](NC(=O)OC)C(C)C)[nH]c5c4)ccc2-3)[nH]1)C(C)C [Ledipasvir] | 417 ± 50.7 nM | 79.4% | 84.9% ± 7.3 |  |  |  | > 1000 µM | 0.406 µM | Toxicity to Vero-E6 cells (in words, discussion) [1]: toxic; Screening data ([1]; 400 μM): 400 μM: inactive
Cc1ccc(C(=O)Nc2ccc(S(=O)(=O)O)c3cc(S(=O)(=O)O)cc(S(=O)(=O)O)c23)cc1NC(=O)c1cccc(NC(=O)Nc2cccc(C(=O)Nc3cc(C(=O)Nc4ccc(S(=O)(=O)O)c5cc(S(=O)(=O)O)cc(S(=O)(=O)O)c45)ccc3C)c2)c1 [Suramin] |  |  |  | 46.2 ± 1.6 µM |  |  | > 1000 µM | 1.89 µM | SI (selectivity index, CC50/IC50) [4]: >21.6; Antiviral potency [1]: 100%
COC[C@H]1C[C@@H](c2ncc(-c3ccc4c(c3)COc3cc5c(ccc6nc([C@@H]7CC[C@H](C)N7C(=O)[C@@H](NC(=O)OC)C(C)C)[nH]c65)cc3-4)[nH]2)N(C(=O)[C@H](NC(=O)OC)c2ccccc2)C1 [Velpatasvir] | 24.9 ± 4.24 nM | 61.4% | 68.1% ± 9.44 |  | toxic |  |  | 0.293 ± 0.0612 µM | Toxicity to Vero-E6 cells (in words, discussion) [1]: toxic; Screening data ([1]; 100 μM): 500 μM: toxic, 100 μM: inactive; Screening data ([1]; 500 μM): 500 μM: toxic, 100 μM: inactive
Cc1ccc(NC(=O)C2(c3ccc4c(c3)OC(F)(F)O4)CC2)nc1-c1cccc(C(=O)O)c1 [Lumacaftor] |  |  |  | 84 ± 3.7 µM | active | 71.4 ± 3.1% | 314 ± 22.7 µM | 5.42 µM | SI (selectivity index, CC50/IC50) [4]: 3.7; Cytotoxicity in screening at the highest concentration tested [1]: no apparent cytotoxicity; Kd (SARS-CoV-2 spike protein): 1.51 µM
CC1(C)CCC(CN2CCN(c3ccc(C(=O)NS(=O)(=O)c4ccc(NCC5CCOCC5)c([N+](=O)[O-])c4)c(Oc4cnc5[nH]ccc5c4)c3)CC2)=C(c2ccc(Cl)cc2)C1 [Venetoclax] | 290 ± 31.1 nM | 66.3% | 69.1% ± 7.31 |  | toxic |  | 4.9 ± 2.2 µM | 2.4 ± 1.3 µM | Screening result at lower concentrations [1]: inactive; Screening data ([1]; 10 μM): 10 μM: 40 % active
C[C@H]1O[C@@H](O[C@H]2[C@@H](O)C[C@H](O[C@H]3[C@@H](O)C[C@H](O[C@H]4CC[C@@]5(C)[C@H](CC[C@@H]6[C@@H]5C[C@@H](O)[C@]5(C)[C@@H](C7=CC(=O)OC7)CC[C@]65O)C4)O[C@@H]3C)O[C@@H]2C)C[C@H](O)[C@@H]1O [Digoxin] | 1250 ± 97.2 nM | 27.6% | 31.5% ± 4.55 |  |  |  |  |  | 
